From patent US6830894B1, “Compounds and methods for modulating claudin-mediated functions” (Adherex Technologies, Inc., priority 1998, dated 2004)

Tested on: MDCK cell monolayers
Test: Electrical resistance across MDCK cell monolayer
Format: cell-based, canine
Experimental: Yet another assay evaluates the effect of a modulating agent on the electrical resistance across a monolayer of cells. For example, Madin Darby canine kidney (MDCK) cells can be exposed to the modulating agent dissolved in medium (e.g., at a final concentration of 0.5 mg/ml for a period of 24 hours). The effect on electrical resistance can be measured using standard techniques. This assay evaluates the effect of a modulating agent on tight junction formation in epithelial cells. In general, the presence of 500 μg/mL modulating agent should result in a statistically significant decrease in electrical resistance after 24 hours.
Madin Darby canine kidney (MDCK) cells were plated in Millicells (Millipore, Bedford, Mass.), at a density of 300,000 cells per Millicell, and cultured in Dulbecco's Modified Eagle Medium (DMEM; Sigma, St. Louis, Mo.) containing 5% fetal calf serum (Sigma, St. Louis, Mo.) until monolayers formed. Monolayers were exposed to the modulating agent dissolved in medium. The electrical resistance was measured using the EVOM device (World Precision Instruments, Sarasota, Fla.). At the time of measurement, fresh medium, with or without the modulating agent, may be added to the Millicells.

[1] = cultured for 18 hours, peptide at 0.5 mg/ml, relative to medium alone (Control), FIG. 3

Substance	mean electrical resistance across MDCK cell monolayers [1]	mean electrical resistance across MDCK cell monolayers (cultured for 24 hours, peptide at various concentrations, versus medium alone (Control), FIG. 4)
H-WKIYSYAGDN-NH2 [Peptide 119]	did not change the electrical resistance across the monolayer relative to the control	–
N—Ac-WKIYSYAGDN-NH2 [Peptide 118]	reduced the electrical resistance across the monolayer	reduced the electrical resistance across the monolayer in a dose dependent manner
